Reference: patent publication US20260248787A9, “MEDICAMENT FOR TREATING CANCER COMPRISING OPTICALLY ACTIVE AZABICYCLO RING DERIVATIVE” (Sumitomo Pharma Co., Ltd., priority 2023, published 2026)
Where two headings read alike, the source gives them in different places.

Experiment: Phase 1/2 clinical study, plasma pharmacokinetic evaluation
Assay type: in vivo, human
Details: for time of maximum concentration: after dosing; for AUC(0-t) / Cmax / Tmax / half-life: human, plasma, oral; for half-life: read-out: t1/2 (converted)
Experimental: In the present test of the present compound, PK samples have been collected in up to 24 patients dosed in dose groups of 40, 80, 100, and 120 mg BID Arm A, and in dose groups of 40 and 60 mg BID Arm B (Table 6). Large preliminary PK inter-patient variability was observed.
(1) In the present study, PK samples have been collected in up to 42 patients dosed in dose groups of 40, 80, 100, 120, 140 and 200 mg BID Arm A, and in dose groups of 40, 60, 100, and 200 mg BID Arm B (Table 15).
(2) In the present study, PK samples have been collected in patients dosed in dose groups of 40, 80, 100, 120, 140, 200, and 300 mg BID Arm A, and in dose groups of 40, 60, 100, 200, and 300 mg BID Arm B (Table 16).

[1] = 40 mg, 40 mg BID Arm A, C1D1, N=2, mean
[2] = 40 mg, 40 mg BID Arm A, C2D1, N=1
[3] = 40 mg, 40 mg BID Arm B, C1D1, N=4, mean
[4] = 40 mg, 40 mg BID Arm B, C2D1, N=2, mean
[5] = 40 mg, Cycle 1 Day 1, 40 mg BID Arm A (without azole), N=2, mean
[6] = 40 mg, Cycle 1 Day 1, 40 mg BID Arm B (with azole), N=4, mean
[7] = 40 mg, Cycle 2 Day 1, 40 mg BID Arm A (without azole), N=1
[8] = 40 mg, Cycle 2 Day 1, 40 mg BID Arm B (with azole), N=2, mean
[9] = 40 mg, Table 15 cut-off, 40 mg BID Arm A, Cycle 1 Day 1, N=2, mean
[10] = 40 mg, Table 15 cut-off, 40 mg BID Arm A, Cycle 2 Day 1, N=1
[11] = 40 mg, Table 15 cut-off, 40 mg BID Arm B, Cycle 1 Day 1, N=4, mean
[12] = 40 mg, Table 15 cut-off, 40 mg BID Arm B, Cycle 2 Day 1, N=2, mean
[13] = 60 mg, 60 mg BID Arm B, C1D1, N=6, mean
[14] = 60 mg, 60 mg BID Arm B, C2D1, N=4, mean
[15] = 60 mg, Cycle 1 Day 1, 60 mg BID Arm B (with azole), N=6, mean
[16] = 60 mg, Cycle 2 Day 1, 60 mg BID Arm B (with azole), N=4, mean
[17] = 60 mg, Table 15 cut-off, 60 mg BID Arm B, Cycle 1 Day 1, N=6, mean
[18] = 60 mg, Table 15 cut-off, 60 mg BID Arm B, Cycle 2 Day 1, N=4, mean
[19] = 80 mg, 80 mg BID Arm A, C1D1, N=4, mean
[20] = 80 mg, 80 mg BID Arm A, C2D1, N=2, mean
[21] = 80 mg, Cycle 1 Day 1, 80 mg BID Arm A (without azole), N=4, mean
[22] = 80 mg, Cycle 2 Day 1, 80 mg BID Arm A (without azole), N=2, mean
[23] = 80 mg, Table 15 cut-off, 80 mg BID Arm A, Cycle 1 Day 1, N=4, mean
[24] = 80 mg, Table 15 cut-off, 80 mg BID Arm A, Cycle 2 Day 1, N=2, mean
[25] = 100 mg, 100 mg BID Arm A, C1D1, N=2, mean

C=C1C[C@@H]2CC[C@H]1[C@@H](C(=O)N1CCC3(CC1)CN(c1ncncc1Oc1ccc(F)cc1C(=O)N(C(C)C)C(C)C)C3)N2 [the present compound, 5-fluoro-2-[(4-{7-[(1S,3S,4R)-5-methylidene-2-azabicyclo[2.2.2]octane-3-carbonyl]-2,7-diazaspiro[3.5]nonan-2-yl}pyrimidin-5-yl)oxy]-N,N-di(propan-2-yl)benzamide]
drug accumulation with repeat dosing (40-200 mg BID cut-off): minimal drug accumulation | effect of azoles on the exposure (40-200 mg BID cut-off): do not have a large effect | exposure versus dose (40-200 mg BID cut-off): Dose-dependent increases in exposures | drug accumulation with repeat dosing (40-300 mg BID cut-off): minimal drug accumulation | effect of azoles on the exposure (40-300 mg BID cut-off): do not have a large effect | exposure versus dose (40-300 mg BID cut-off): Dose-dependent increases in exposures | exposure versus dose (Arm A, 40, 80, 100, 120 mg BID): a trend of dose-related increased in exposures | impact of azoles on the exposure (Arm B compared with Arm A, first cut-off): do not have a large or dramatic impact | drug accumulation with repeat dosing (Cycle 2 Day 1 vs Cycle 1 Day 1, first cut-off): minimal to no drug accumulation | accumulation with repeat dosing (FIGS. 4A to 4D cut-off): minimal accumulation | large drug-drug interaction (>~2-fold) with azoles (FIGS. 4A to 4D cut-off): has not identified | time of maximum concentration (40-200 mg BID cut-off): ≤ 2 h | time of maximum concentration (40-300 mg BID cut-off): ≤ 2 h | exposure versus dose (doses ≥140 mg BID, FIGS. 4A to 4D cut-off): Dose-related increases in exposures | AUC(0-t) [1]: 3920 ng·h/mL | Cmax [1]: 1160 ng/mL | Tmax [1]: 1.25 h | half-life [1]: 3.35 h | AUC(0-t) [2]: 4710 ng·h/mL | Cmax [2]: 772 ng/mL | Tmax [2]: 2 h | half-life [2]: 4.57 h | AUC(0-t) [3]: 3270 ng·h/mL | Cmax [3]: 976 ng/mL | Tmax [3]: 0.625 h | half-life [3]: 4.41 h | AUC(0-t) [4]: 5330 ng·h/mL | Cmax [4]: 987 ng/mL | Tmax [4]: 1.25 h | half-life [4]: 7.29 h | AUC(0-t) [5]: 3960 ng·h/mL | Cmax [5]: 1160 ng/mL | AUC(0-t) [6]: 3270 ng·h/mL | Cmax [6]: 976 ng/mL | AUC(0-t) [7]: 4730 ng·h/mL | Cmax [7]: 772 ng/mL | AUC(0-t) [8]: 5330 ng·h/mL | Cmax [8]: 987 ng/mL | AUC(0-t) [9]: 3960 ng·h/mL | Cmax [9]: 1160 ng/mL | AUC(0-t) [10]: 4730 ng·h/mL | Cmax [10]: 772 ng/mL | AUC(0-t) [11]: 3270 ng·h/mL | Cmax [11]: 976 ng/mL | AUC(0-t) [12]: 5330 ng·h/mL | Cmax [12]: 987 ng/mL | AUC(0-t) [13]: 4140 ng·h/mL | Cmax [13]: 1170 ng/mL | Tmax [13]: 1.08 h | half-life [13]: 2.61 h | AUC(0-t) [14]: 2610 ng·h/mL | Cmax [14]: 703 ng/mL | Tmax [14]: 0.75 h | half-life [14]: 3.19 h | AUC(0-t) [15]: 4240 ng·h/mL | Cmax [15]: 1170 ng/mL | AUC(0-t) [16]: 2690 ng·h/mL | Cmax [16]: 751 ng/mL | AUC(0-t) [17]: 4240 ng·h/mL | Cmax [17]: 1170 ng/mL | AUC(0-t) [18]: 2690 ng·h/mL | Cmax [18]: 751 ng/mL | AUC(0-t) [19]: 5150 ng·h/mL | Cmax [19]: 1620 ng/mL | Tmax [19]: 1.25 h | half-life [19]: 2.82 h | AUC(0-t) [20]: 2900 ng·h/mL | Cmax [20]: 1400 ng/mL | Tmax [20]: 0.75 h | half-life [20]: 3.4 h | AUC(0-t) [21]: 5110 ng·h/mL | Cmax [21]: 1620 ng/mL | AUC(0-t) [22]: 2900 ng·h/mL | Cmax [22]: 1400 ng/mL | AUC(0-t) [23]: 5110 ng·h/mL | Cmax [23]: 1620 ng/mL | AUC(0-t) [24]: 2900 ng·h/mL | Cmax [24]: 1400 ng/mL | AUC(0-t) [25]: 4940 ng·h/mL | Cmax [25]: 1380 ng/mL
